Tests used:
Human FXIa = Human FXIa (Homo sapiens (Human), UniProt P03951); assay: Determination of the % inhibition / IC50 for FXIa; type: biochemical; settings: 25° C., substrate Z-Gly-Pro-Arg-AFC
Protocol: FXIa inhibitory activity in vitro was determined using standard published methods (see e.g. Johansen et al., Int. J. Tiss. Reac. 1986, 8, 185; Shori et al., Biochem. Pharmacol., 1992, 43, 1209; Sturzebecher et al., Biol. Chem. Hoppe-Seyler, 1992, 373, 1025). […]

Human plasma kallikrein = Human plasma kallikrein (Homo sapiens (Human), UniProt P03952); assay: Determination of the IC50 for plasma kallikrein; type: biochemical; settings: 25° C., substrate H-DPro-Phe-Arg-AFC; read-out: IC50 (human PKal)
Protocol: (§1) Human plasma kallikrein (Protogen) was incubated at 25° C. with the fluorogenic substrate H-DPro-Phe-Arg-AFC and various concentrations of the test compound. Residual enzyme activity (initial rate of reaction) was determined by measuring the change in […] at 410 nm and the IC50 value for the test compound was determined.

Human KLK1 = Human KLK1 (Homo sapiens (Human), UniProt P06870); assay: Determination of the IC50 for KLK1; type: biochemical; settings: 25° C., substrate H-DVal-Leu-Arg-AFC
Protocol: as §1, with “KLK1 (Callbiochem)” for “plasma kallikrein (Protogen)”, “H-DVal-Leu-Arg-AFC” for “H-DPro-Phe-Arg-AFC”

Human Factor XIIa = Human Factor XIIa (Homo sapiens (Human), UniProt P00748); assay: Factor XIIa inhibitory activity in vitro; type: biochemical; settings: 25° C., substrate H-DPro-Phe-Arg-AFC; read-out: IC50 (human FXIIa)
Protocol: as §1, with “Factor XIIa (Enzyme Research Laboratories)” for “plasma kallikrein (Protogen)”

[1] = Intrinsic clearance in rat liver microsomes; type: in vitro ADME; settings: rat liver microsomes 0.5 mg/mL, 5 μM test compound, 37° C.; read-out: rat liver microsome (Clint μL/min/mg protein)
Protocol: (§2) Rat or human liver microsomes (0.5 mg/mL; Corning) were incubated with 5 μM test compound at 37° C. on a shaking platform (150 rpm). Samples were taken at 0, 6, 12, 18, 24 and 60 min and test compound concentrations were determined by LCMS against a calibration curve.

[2] = Intrinsic clearance in human liver microsomes; type: in vitro ADME; settings: human liver microsomes 0.5 mg/mL, 5 μM test compound, 37° C.; read-out: Human liver microsome (Clint μL/min/mg protein)
Protocol: as §2

[3] = In vitro permeability, Caco-2 model for oral absorption; type: in vitro ADME; settings: human, apical to basolateral, 50 μM test compound, 37° C.
Protocol: In vitro permeability was determined using the Caco-2 model for oral absorption. The methodology was adapted from standard published methods (Wang Z, Hop C. E., Leung K. H. and Pang J. (2000) J Mass Spectrom 35(1); 71-76). The Caco-2 monolayers were established in a Biocoat™ HTS fibrillar collagen 24 well multiwell insert system (1.0 μm, PET membrane, Corning 354803) in which 200,000 cells were seeded into each insert and maintained over 3 days before being utilised in the permeability assay. For the assay, 50 μM test compound is added to the apical side of the inserts and incubated for 1 hour at 37° C. on a shaking platform (120 rpm). Apical to basolateral transport was determined by measuring the test article in both compartments by LCMS following the 1 hour incubation. The integrity of the Caco-2 monolayers was confirmed by two methods, (i) comparison of pre- and post-experiment transepithelial electrical resistance (TEER) and, (ii) assessment of Lucifer Yellow flux.

Sequence of Human KLK1 (P06870 25-262): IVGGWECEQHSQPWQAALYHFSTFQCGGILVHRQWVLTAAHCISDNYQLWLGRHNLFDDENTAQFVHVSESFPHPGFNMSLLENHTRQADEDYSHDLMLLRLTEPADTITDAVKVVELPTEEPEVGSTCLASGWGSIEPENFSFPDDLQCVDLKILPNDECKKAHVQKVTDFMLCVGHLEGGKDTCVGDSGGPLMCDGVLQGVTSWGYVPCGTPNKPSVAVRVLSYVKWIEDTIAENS
Sequence of Human Factor XIIa (P00748 373-615): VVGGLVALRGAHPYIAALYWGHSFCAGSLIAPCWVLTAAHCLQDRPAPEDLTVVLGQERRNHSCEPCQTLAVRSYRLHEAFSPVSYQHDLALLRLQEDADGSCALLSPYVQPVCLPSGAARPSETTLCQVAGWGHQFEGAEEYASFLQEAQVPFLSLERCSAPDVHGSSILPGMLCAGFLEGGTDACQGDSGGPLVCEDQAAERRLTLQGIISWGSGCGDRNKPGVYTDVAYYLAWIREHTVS
Sequence of Human plasma kallikrein (P03952 391-638): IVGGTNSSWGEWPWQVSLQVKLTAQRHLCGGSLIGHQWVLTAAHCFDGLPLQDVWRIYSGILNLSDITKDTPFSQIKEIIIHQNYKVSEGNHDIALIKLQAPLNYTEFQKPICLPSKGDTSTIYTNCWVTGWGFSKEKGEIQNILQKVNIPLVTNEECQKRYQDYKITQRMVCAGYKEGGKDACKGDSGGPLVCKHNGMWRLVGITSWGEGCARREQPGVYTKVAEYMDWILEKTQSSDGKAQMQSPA
Sequence of Human plasma kallikrein (P03952 20-390): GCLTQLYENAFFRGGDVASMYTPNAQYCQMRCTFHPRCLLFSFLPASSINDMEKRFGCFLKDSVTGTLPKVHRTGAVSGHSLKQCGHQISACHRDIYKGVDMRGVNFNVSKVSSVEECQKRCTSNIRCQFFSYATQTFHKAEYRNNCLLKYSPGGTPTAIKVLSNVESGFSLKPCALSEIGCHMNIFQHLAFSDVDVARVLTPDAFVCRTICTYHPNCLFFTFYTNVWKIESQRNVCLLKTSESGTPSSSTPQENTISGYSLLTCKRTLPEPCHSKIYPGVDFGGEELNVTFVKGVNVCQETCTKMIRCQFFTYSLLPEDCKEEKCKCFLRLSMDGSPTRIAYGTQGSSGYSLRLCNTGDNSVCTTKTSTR
Sequence of Human FXIa (P03951 388-625): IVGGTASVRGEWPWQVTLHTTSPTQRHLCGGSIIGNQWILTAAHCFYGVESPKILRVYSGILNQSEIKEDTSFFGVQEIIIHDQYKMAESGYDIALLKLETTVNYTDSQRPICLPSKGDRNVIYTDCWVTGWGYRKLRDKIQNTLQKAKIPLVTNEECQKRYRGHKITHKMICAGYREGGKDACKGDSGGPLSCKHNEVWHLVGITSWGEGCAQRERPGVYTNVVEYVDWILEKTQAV
Sequence of Human FXIa (P03951 19-387): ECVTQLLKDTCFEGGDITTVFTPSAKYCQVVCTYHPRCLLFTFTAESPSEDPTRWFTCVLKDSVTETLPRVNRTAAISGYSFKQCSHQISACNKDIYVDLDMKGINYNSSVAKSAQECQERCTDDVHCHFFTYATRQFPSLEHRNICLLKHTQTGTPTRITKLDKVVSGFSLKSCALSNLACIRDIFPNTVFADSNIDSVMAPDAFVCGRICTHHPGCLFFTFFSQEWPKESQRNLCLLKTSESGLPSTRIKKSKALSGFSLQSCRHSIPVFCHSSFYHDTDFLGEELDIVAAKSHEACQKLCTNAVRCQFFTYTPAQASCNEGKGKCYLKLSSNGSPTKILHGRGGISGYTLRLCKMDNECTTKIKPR

Structure (SMILES)	IC50 (Human FXIa)	IC50 (Human plasma kallikrein)	IC50 (Human KLK1)	IC50 (Human Factor XIIa)	microsomal CLint at 5 μM [1]	microsomal CLint at 5 μM [2]	Papp at 1 h, 50 μM [3]
COCc1nn(Cc2ccc(Cn3cccn3)cc2)cc1C(=O)NCc1cccc(Cl)c1F [Reference Example J, reference compound]	> 40 µM	2.87 µM	> 40 µM	> 40 µM	187 µL/min/mg	110 µL/min/mg	12 ×10⁻⁶ cm/s
COc1ccc(-n2cnnn2)c(CNC(=O)c2cnn(Cc3cnc(N4CCCC4)nc3)c2)c1F [Reference Example K, reference compound]	0.076 µM	0.002 µM	> 40 µM	> 40 µM			3 ×10⁻⁶ cm/s
COCc1nn(Cc2ccc(Cn3cc(C)cn3)cc2)cc1C(=O)NCc1nccc(OC)c1F [Example 1, N-[(3-fluoro-4-methoxypyridin-2-yl)methyl]-3-(methoxymethyl)-1-({4-[(4-methylpyrazol-1-yl)methyl]phenyl}methyl)pyrazole-4-carboxamide]	> 40 µM	0.0261 µM	> 40 µM	> 40 µM	52 µL/min/mg	33 µL/min/mg	28 ×10⁻⁶ cm/s
COCc1nn(Cc2ccc(Cn3ccccc3=O)cc2)cc1C(=O)NCc1c(C(N)=O)ccc(OC)c1F [Example 42, N-[(6-carbamoyl-2-fluoro-3-methoxyphenyl)methyl]-3-(methoxymethyl)-1-({4-[(2-oxopyridin-1-yl)methyl]phenyl}methyl)pyrazole-4-carboxamide]	> 40 µM	0.0036 µM	> 4 µM	> 4 µM	11 µL/min/mg	8 µL/min/mg	4 ×10⁻⁶ cm/s
COCc1nn(Cc2ccc(Cn3ccccc3=O)nc2)cc1C(=O)NCc1c(C#N)ccc(OC)c1F [Example 52, N-[(6-cyano-2-fluoro-3-methoxyphenyl)methyl]-3-(methoxymethyl)-1-({6-[(2-oxopyridin-1-yl)methyl]pyridin-3-yl}methyl)pyrazole-4-carboxamide]	> 40 µM	0.0064 µM	> 4 µM	> 4 µM	8 µL/min/mg	16 µL/min/mg	5 ×10⁻⁶ cm/s
COCc1nn(Cc2ccc(N3CCC(F)(F)C3)nc2)cc1C(=O)NCc1c(-n2cnnn2)ccc(OC)c1F [Example 87, 1-{[6-(3,3-difluoropyrrolidin-1-yl)pyridin-3-yl]methyl}-N-{[2-fluoro-3-methoxy-6-(1,2,3,4-tetrazol-1-yl)phenyl]methyl}-3-(methoxymethyl)pyrazole-4-carboxamide]	0.161 µM	0.0008 µM	> 40 µM	> 40 µM			4 ×10⁻⁶ cm/s
COCc1nn(Cc2cnc(N3CCCC3)nc2)cc1C(=O)NCc1c(C#N)ccc(OC)c1F [Example 58, N-[(6-cyano-2-fluoro-3-methoxyphenyl)methyl]-3-(methoxymethyl)-1-{[2-(pyrrolidin-1-yl)pyrimidin-5-yl]methyl}pyrazole-4-carboxamide]	8.5 µM	0.057 µM	> 40 µM	> 40 µM			26 ×10⁻⁶ cm/s
COCc1nn(Cc2ccc(CN3CCCCC3=O)cc2)cc1C(=O)NCc1c(C#N)ccc(OC)c1F [Example 57, N-[(6-cyano-2-fluoro-3-methoxyphenyl)methyl]-3-(methoxymethyl)-1-({4-[(2-oxopiperidin-1-yl)methyl]phenyl}methyl)pyrazole-4-carboxamide]	> 40 µM	0.0279 µM	> 40 µM	> 40 µM			
COCc1nn(Cc2ccc(Cn3ccccc3=O)cc2)cc1C(=O)NCc1c(Cl)cccc1-n1cnnn1 [Example 73, N-{[2-chloro-6-(1,2,3,4-tetrazol-1-yl)phenyl]methyl}-3-(methoxymethyl)-1-({4-[(2-oxopyridin-1-yl)methyl]phenyl}methyl)pyrazole-4-carboxamide]	> 40 µM	0.0231 µM	> 4 µM	> 4 µM			4 ×10⁻⁶ cm/s

Reference: patent US11180484B2, “Pyrazole derivatives as plasma kallikrein inhibitors” (KALVISTA PHARMACEUTICALS LIMITED, priority 2016, dated 2021)
